How the values were obtained:
[1] = test system: HFL-1 cells; experiment: IL-8 production assay (S1P induced IL-8); type: cell-based; details: Homo sapiens, HFL1; S1P (1 μM) induced IL-8 in HFL-1 cells, starvation medium without HSA; read-out: IL8 EC50
Protocol: This assay is designed to test inhibitory activity of compounds on S1P induced IL-8 on HFL-1 cells, ahuman fetal lung fibroblast cell line.
Human Fetal Lung cells (HFL-1) are seeded in 96 well plates in growth medium (F12K+10% heat inactivated FBS+l1% Pen/strep). After overnight incubation at 37° C., […] cells are refreshed with starvation medium without HSA (F12K+1% FBS+1% Pen/strep). On day three, compounds are added (10 point serial dilution, 30 μM highest concentration, 1/3 dilution, 0.3% DMSO final) and plates are incubated for one h at 37° C., 5% CO2. Subsequently S1P at 1 μM final concentration is added and plates are incubated for 16 to24 h at 37° C., […] after which the supermatant was collected. IL-8 levels in the supernatant are determined with the IL-8 ELISA of R&D systems.

[2] = molecular target: T1, S1PR2 (Homo sapiens, UniProt O95136); experiment: S1PR2 binding assay (competition with radioactively labeled S1P, SpA); details: membranes from stable cell line over expressing S1PR2, SpA beads; read-out: S1P2 EC50 (nM), S1PR2 binding EC50
T1 construct: expressed in transfected cells
T1 sequence (O95136 whole entry): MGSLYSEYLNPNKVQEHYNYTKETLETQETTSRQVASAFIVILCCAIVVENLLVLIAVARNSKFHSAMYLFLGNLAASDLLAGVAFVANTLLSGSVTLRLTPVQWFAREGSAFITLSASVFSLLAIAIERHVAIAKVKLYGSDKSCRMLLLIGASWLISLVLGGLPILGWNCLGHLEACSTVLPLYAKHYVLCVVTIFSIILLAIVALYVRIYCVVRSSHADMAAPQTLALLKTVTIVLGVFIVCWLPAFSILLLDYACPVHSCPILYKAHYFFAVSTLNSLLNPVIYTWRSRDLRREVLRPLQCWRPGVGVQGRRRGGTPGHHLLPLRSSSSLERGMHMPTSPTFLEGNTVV
Outline: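 Scintillation proximity read-out after 2 h room-temperature incubation of compound, [3H]S1P and S1PR2-overexpressing cell membranes on WGA-coated beads. Buffer: 20 mM Tris pH 7.5, 100 mM NaCl, 10 mM MgCl2, 1 mM Na3VO4, 0.4% fatty-acid-free BSA; plates counted immediately after centrifugation.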

[3] = test system: HFL-1 cells; experiment: IL8 assay in the presence of Human Serum Albumin; details: HFL1, read-out: HSA IL8 EC50
[4] = molecular target: T2, human GPCR sphingosine 1-phosphate receptor 2 (Homo sapiens, UniProt O95136); experiment: S1PR2 antagonist Ca2+ flux assay; type: cell-based; details: antagonist mode, CHO-S1PR2 cells, S1P at EC80, Ca2+ fluorescence; read-out: S1P2 EC50 (nM), S1P2 antagonist EC50
T2 construct: host or cells: CHO
T2 sequence (O95136 whole entry): as above
Outline: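 Antagonist mode: 15 min after compound addition, S1P (EC80) stimulates Fluo8-loaded, 1 h-starved CHO-S1PR2 cells, Ca2+ read over 3 min; a prior 3-min read checks compound agonism. EC50 from peak/baseline fluorescence ratio, normalised versus vehicle and S1P EC50 (antagonist) or EC100 (agonist).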

| SMILES | EC50 [1] [nM] | EC50 [2] [nM] | EC50 [3] [nM] | EC50 [4] [nM] |
| --- | --- | --- | --- | --- |
| N#Cc1cc2[nH]c(Cc3nn(C(CN4CCC4)C(=O)O)c(=O)c4ccccc34)nc2cc1OCC(F)F (stereo not shown) [Compound 75, 3-(azetidin-1-yl)-2-[4-[[6-cyano-5-(2,2-difluoroethoxy)-1H-benzimidazol-2-yl]methyl]-1-oxo-phthalazin-2-yl]propanoic acid] | 938 | 2920 | 1300 | 3850 |
| O=C(O)Cc1nn(Cc2nc3cc(OCC(F)F)c(Cl)cc3[nH]2)c2ccccc2c1=O [Compound 78, {1-[6-Chloro-5-(2,2-difluoro-ethoxy)-1H-benzoimidazol-2-ylmethyl]-4-oxo-1,4-dihydro-cinnolin-3-yl}-acetic acid] | 4.65 | 55.9 | 41.5 | 6.16 |
| CCC(C(=O)O)c1nn(Cc2cn3cc(OCC4CC4)c(C(F)(F)F)cc3n2)c2ccccc2c1=O (stereo not shown) [Compound 103, 2-[1-[[6-(cyclopropylmethoxy)-7-(trifluoromethyl)imidazo[1,2-a]pyridin-2-yl]methyl]-4-oxo-cinnolin-3-yl]butanoic acid] | 18.9 | 223 | 108 | 4.59 |
| O=C(O)c1nn(Cc2nc3cc(OCC4CC4)c(C(F)(F)F)cc3[nH]2)c2ccccc2c1=O [Compound 104, (1-[[5-(cyclopropylmethoxy)-6-(trifluoromethyl)-1H-benzimidazol-2-yl]methyl]-4-oxocinnoline-3-carboxylic acid)] | 4.55 | 22.4 | 27 | 3.02 |
| O=C(O)Cc1nn(Cc2cn3cc(OCC4CC4)c(Cl)cc3n2)c2c(c1=O)CCCC2 [Compound 105, 2-[1-[[7-chloro-6-(cyclopropylmethoxy)imidazo[1,2-a]pyridin-2-yl]methyl]-4-oxo-5,6,7,8-tetrahydrocinnolin-3-yl]acetic acid] | 10.6 | 35.3 | 110 | 3.02 |
| O=C(O)Cc1nn(Cc2nc3cc(OCC4CC4)c(Br)cc3[nH]2)c2ccccc2c1=O [Compound 109, 2-[1-[[6-bromo-5-(cyclopropylmethoxy)-1H-benzimidazol-2-yl]methyl]-4-oxo-cinnolin-3-yl]acetic acid] | 0.137 | 3.84 | 2.03 | 2.32 |
| CCOc1cc2[nH]c(Cc3nn(CC(=O)O)c(=O)c4c3CCCC4)nc2cc1Cl [Compound 121, 2-[4-[(5-chloro-6-ethoxy-1H-benzimidazol-2-yl)methyl]-1-oxo-5,6,7,8-tetrahydrophthalazin-2-yl]acetic acid] | 6.35 | 84.8 | 50.8 | 6.23 |
| CC1(COc2cc3nc(Cc4nn(CC(=O)O)c(=O)c5ccccc45)[nH]c3cc2Cl)CC1 [Compound 131, 2-[4-[[5-chloro-6-[(1-methylcyclopropyl)methoxy]-1H-benzimidazol-2-yl]methyl]-1-oxo-phthalazin-2-yl]acetic acid] | 12 | 197 | 267 | 13.2 |
| CC(C)(C)COc1cc2nc(Cc3nn(CC(=O)O)c(=O)c4ccccc34)[nH]c2cc1Cl [Compound 132] | 97.3 | 649 | 800 | 26.4 |
| N#CC1(COc2cc3nc(Cc4nn(CC(=O)O)c(=O)c5ccccc45)[nH]c3cc2Cl)CC1 [Compound 133, 2-[4-[[5-chloro-6-[(1-cyanocyclopropyl)methoxy]-1H-benzimidazol-2-yl]methyl]-1-oxo-phthalazin-2-yl]acetic acid] | 33.3 | 263 | 267 | 14.8 |
| N#Cc1cc2nc(Cc3nn(CC(=O)O)c(=O)c4ccccc34)[nH]c2cc1OCC(F)F [Compound 139] | 5.39 | 159 | 28 | 119 |
| O=C(Cn1nc(Cn2cc3cc(OCC4CC4)c(Cl)cc3n2)c2ccccc2c1=O)N[C@H]1CCC[C@@H]1O [Compound 143, 2-[4-[[6-chloro-5-(cyclopropylmethoxy)indazol-2-yl]methyl]-1-oxo-phthalazin-2-yl]-N-[(1S,2S)-2-hydroxycyclopentyl]acetamide] | 21.6 | 15.2 | 179 | 13.8 |
| O=C(Cn1nc(Cc2nc3cc(Cl)c(OCC(F)F)cc3[nH]2)c2ccccc2c1=O)N1CCOCC1 [Compound 151, 4-[[5-chloro-6-(2,2-difluoroethoxy)-1H-benzimidazol-2-yl]methyl]-2-(2-morpholino-2-oxo-ethyl)phthalazin-1-one] | 7.11 | 34.7 | 43.7 | 13.6 |
| CC(C(=O)N1CCOCC1)n1nc(Cc2nc3cc(OCC4CC4)c(Cl)cc3[nH]2)c2ccccc2c1=O (stereo not shown) [Compound 155, 4-(6-Chloro-5-cyclopropylmethoxy-1H-benzoimidazol-2-ylmethyl)-2-(1-methyl-2-morpholin-4-yl-2-oxo-ethyl)-2H-phthalazin-1-one] | 49.5 | 229 | 230 | 14.7 |
| CCOc1cc2nc(Cc3nn(CC(=O)N4CCOCC4)c(=O)c4ccccc34)[nH]c2cc1F [Compound 157, 4-[(5-ethoxy-6-fluoro-1H-benzimidazol-2-yl)methyl]-2-(2-morpholino-2-oxo-ethyl)phthalazin-1-one] | 780 | 618 | 1220 | 106 |
| N#Cc1cc2[nH]c(Cc3nn(CC(=O)N4CCOCC4)c(=O)c4ccccc34)nc2cc1OCC1CC1 [Compound 158, 6-(cyclopropylmethoxy)-2-[[3-(2-morpholino-2-oxo-ethyl)-4-oxo-phthalazin-1-yl]methyl]-3H-benzimidazole-5-carbonitrile] | 1.5 | 18.6 | 11 | 3.98 |
| C[C@@H]1CN(C(=O)Cn2nc(Cc3nc4cc(Cl)c(OCC5(C#N)CC5)cc4[nH]3)c3ccccc3c2=O)C[C@H](C)O1 [Compound 162, 1-[[6-chloro-2-[[3-[2-[(2S,6R)-2,6-dimethylmorpholin-4-yl]-2-oxo-ethyl]-4-oxo-phthalazin-1-yl]methyl]-3H-benzimidazol-5-yl]oxymethyl]cyclopropanecarbonitrile] | 4.44 | 75.1 | 8.27 | 9.07 |
| CC1(COc2cc3[nH]c(Cc4nn(CC(=O)N5CCOCC5)c(=O)c5ccccc45)nc3cc2Cl)CC1 [Compound 163, 4-[[5-chloro-6-[(1-methylcyclopropyl)methoxy]-1H-benzimidazol-2-yl]methyl]-2-(2-morpholino-2-oxo-ethyl)phthalazin-1-one] | 12.6 | 109 | 107 | 11.6 |
| O=C(Cn1nc(Cc2nc3cc(Cl)c(OCC4CC4)cc3[nH]2)c2ccccc2c1=O)N1CCOCC1 [Compound 166, 4-[[5-chloro-6-(cyclopropylmethoxy)-1H-benzimidazol-2-yl]methyl]-2-(2-morpholino-2-oxo-ethyl)phthalazin-1-one] | 1.41 | 22.4 | 3.3 | 9.34 |
